# Measured values published in patent publication US7901906B2, “Targeting of MKRN1 for identifying cancer treatment agents” (University of Central Florida Research Foundation, Inc., priority 2006, dated 2011).
# Non-standard residues stand in square brackets, D forms with d. Residues, ends and D or L forms follow the SMILES beside them. *: point of attachment. Nle = CCCC[C@H](N)C(=O)O; Cbz = O=C(OCc1ccccc1)*
# How the values were obtained:
# hTERT [1] = assay: Ubiquitination of hTERT in H1299 cells (immunoprecipitation, anti-HA immunoblot); format: cell-based, human
# Experimental: (§1) FIG. 2. hTERT is ubiquitinated prior to proteasome-mediated degradation. (A) H1299 cells were co-transfected with Flag-hTERT and HA-ubiquitin. Cells were either untreated or treated for 2 hours with 10 μg/ml ALLnN or 0.1 μM GA, or a combination of the two as specified above each lane. Immunoprecipitation was performed with anti-Flag antibody before probing with anti-hTERT or anti-HA antibodies as indicated besides each blot. Molecular weight markers are shown in kilodaltons. (B) H1299 cells co-transfected with Flag-hTERT and HA-ubiquitin were treated for 1 hour with the GA concentration indicated in the presence of 10 μM MG132. Immunoprecipitation was performed with anti-Flag antibody followed by immunoblotting using an anti-HA antibody probe. (C) H1299 cells co-transfected with Flag-hTERT and HA-ubiquitin were either untreated or treated for 2 hours with 10 μg/ml ALLnN as specified above each lane. Proteins were immunoprecipated with anti-Flag antibody followed by immunoblotting using an anti-HA antibody probe.
# FIG. 4. MKRN1 functions as an E3 ubiquitin-ligase for hTERT in vitro and in vivo. (A) HA-tagged hTERT (residues 946-1132) was incubated MKRN1 or mutants in the presence of E1, E2, His6-ubiquitin (6×His tag disclosed as SEQ ID NO: 7). Samples were resolved by 6% SDS-PAGE and analyzed by immunoblotting with an anti-HA antibody probe. (B) H1299 cells were co-transfected with Flag-hTERT, HA-ubiquitin, MKRN1-V5, and together with either MKRN1^H307E-V5 or MKRN1^Δ^C-V5 as specified. Cells were untreated or treated with 10 μM MG132 for 2 hours. Anti-Flag immunoprecipitates and cell lysates were analyzed by immunoblotting with anti-HA antibody and anti-V5 antibody probes, respectively. (C) H1299 cells co-transfected with Flag-hTERT and HA-ubiquitin, and together with or without MKRN1-V5 as indicated were treated with 10 μM MG132 for the indicated times. Anti-Flag immunoprecipitates and cell lysates were analyzed by immunoblotting with anti-HA antibody and anti-V5 antibody probes, respectively.
# H1299 cells were transiently transfected with the expression vectors indicated in the figure legends using TransFast transfection reagent (Promega, Madison, Wis.) according to the manufacturer's instructions. Cells were lysed with buffer containing 0.5% NP-40, 50 mM Tris-HCl (pH 7.5), 150 mM NaCl, 2 mM phenyl methylsulphonyl fluoride. After centrifugation at 12,000 rpm for 30 min, the supernatants were immunoprecipitated for 2 hours with anti-Flag (Sigma, St. Louis, Mo.) or anti-HA (Santa Cruz biotechnology, Santa Cruz, Calif.) antibodies and then incubated with Sepharose beads conjugated to Protein G (Amersham Biosciences Inc., Piscataway, N.J.). When ubiquitin conjugates of hTERT were detected, immunoprecipitation was performed with lysis buffer containing 0.1% SDS to dissociate its interacting proteins. Immunoblot analyses were performed using anti-hTERT (Santa Cruz biotechnology, Santa Cruz, Calif.), anti-V5 (Invitrogen, Carlsbad, Calif.), anti-HA, and anti-Flag antibodies.
# GA-mediated protein degradation by the proteasome depends on conjugation of ubiquitin to the Hsp90 client protein (Isaacs et al. 2002; Citri et al. 2002). To determine whether hTERT is ubiquitinated in vivo prior to its degradation, H1299 cells co-transfected with Flag-tagged hTERT and HA-tagged ubiquitin constructs were treated with GA, ALLnN (a general proteasome inhibitor) or both. The immunoprecipitated products were evaluated by immunoblotting with selected probes as described in FIG. 2. […]
# hTERT [2] = assay: hTERT protein levels by immunoblotting in H1299 cells; format: cell-based, human
# Experimental: FIG. 1. hTERT is sensitive to the Hsp90 antagonist geldanamycin. (A) Down-regulation of ectopically expressed hTERT by GA. H1299 cells transfected with Flag-hTERT or Flag-TRF1 were treated with 0.1 μM GA for the indicated times. Lysates were resolved on 8% SDS-PAGE and analyzed by immunoblotting using an anti-Flag antibody probe. Cells were pretreated with 10 μM MG132 or E-64 for 2 hours, either alone or before treatment with GA. (B) Concentration dependence of GA on hTERT. H1299 cells transfected with Flag-hTERT or hTERT-HA were treated for 2 hours with the GA concentration indicated. The hTERT polypeptides were visualized with anti-Flag or anti-HA antibodies as marked by each blot. (C) Down-regulation of endogenous hTERT by GA. H1299 cells were treated with 0.1 μM GA for the indicated times, and cell lysates were analyzed by immunoprecipitation with anti-hTERT antibody followed by immunoblotting using same antibody probe. Cells were pretreated with 10 μM MG132 for 2 hours, either alone or before treatment with GA. Molecular weight markers are shown in kilodaltons. (D) H1299 cells were treated with 0.1 μM GA for the indicated times, and cell lysates were analyzed for telomerase activity by the TRAP assay. The lane labeled LB corresponds to the negative control (lysis buffer only). ITAS represents the internal telomerase assay standard. (E) Saos-2 cells transfected with Flag-hTERT or hTERT-HA or empty vector were untreated or treated with 0.1 μM GA for 16 hours, and cell lysates were analyzed for telomerase activity using the TRAP assay.
# as §1
# The human lung carcinoma cell line H1299 was cultured in RPMI-1640 medium, and the human fibrosarcoma cell line HT1080 was cultured in Dulbecco's modified Eagle's medium supplemented with 10% fetal bovine serum, 100 units/ml penicillin, and 100 μg/ml streptomycin in 5% CO2 at 37° C. The human osteosarcoma cell line Saos-2 was maintained in McCoy's 5A medium containing 15% fetal bovine serum, 100 units/ml penicillin, and 100 μg/ml streptomycin. To establish cell lines stably expressing MKRN1, the MKRN1-V5 construct was transfected into HT1080 cells using Lipofectamine Plus (Invitrogen, Carlsbad, Calif.) according to the manufacturer's instructions. As a control, HT1080 cells were also stably transfected with an empty vector. Multiple independent single clones were isolated and checked for protein expression by immunoblotting with anti-V5 antibody.
# H1299 cells were transiently transfected with the expression vectors indicated in the figure legends using TransFast transfection reagent (Promega, Madison, Wis.) according to the manufacturer's instructions. Cells were lysed with buffer containing 0.5% NP-40, 50 mM Tris-HCl (pH 7.5), 150 mM NaCl, 2 mM phenyl methylsulphonyl fluoride. […]
Structure (SMILES),"polyubiquitinated hTERT forms in absence of GA (hTERT [1]; H1299, 10 μg/ml ALLnN, 2 hours, FIG. 2C)","ubiquitinated hTERT (hTERT [1]; H1299 Flag-hTERT and HA-ubiquitin, 10 μg/ml ALLnN, 2 hours, FIG. 2A)","effect on GA-induced decrease of hTERT levels (hTERT [2]; H1299 Flag-hTERT and HA-ubiquitin, 10 μg/ml ALLnN plus 0.1 μM GA, 2 hours)","hTERT levels (hTERT [2]; H1299 co-transfected with Flag-hTERT and HA-ubiquitin, 2 hours, single agent (0.1 μM GA or 10 μg/ml ALLnN))","hTERT-ubiquitin conjugates without MKRN1 co-expression (hTERT [1]; H1299 Flag-hTERT plus HA-ubiquitin, 10 μM MG132, 45-60 minutes)","ubiquitin conjugates of hTERT (hTERT [1]; H1299 co-transfected with Flag-hTERT, HA-ubiquitin, MKRN1-V5, 10 μM MG132, 2 hours)","effect on GA-induced degradation of endogenous hTERT (hTERT [2]; H1299, 10 μM MG132 pretreatment 2 hours before GA)","effect on GA-induced down-regulation of hTERT (hTERT [2]; H1299 Flag-hTERT, 10 μM pretreatment 2 hours, then GA 4 hours)","hTERT expression levels, inhibitor alone (hTERT [2]; H1299 Flag-hTERT, 10 μM, absence of GA, relative to untreated controls)"
CCCC[C@@H](C=O)NC(=O)[C@H](CC(C)C)NC(=O)[C@H](CC(C)C)NC(C)=O [ALLnN] (Ac-Leu-Leu-[Nle]-aldehyde),significantly elevated,dramatically elevated,reversed this trend,did not affect,–,–,–,–,–
CC(C)C[C@@H](C=O)NC(=O)[C@H](CC(C)C)NC(=O)[C@H](CC(C)C)NC(=O)OCc1ccccc1 [MG132] (Cbz-Leu-Leu-Leu-aldehyde),–,–,–,–,low levels were detected,easily detected,rescued,rescued,did not cause a significant change
